Measured values: patent publication US20240415819A1, “MACROCYCLIC COMPOUNDS AS PROTEASOME SUBUNIT BETA TYPE-5 INHIBITORS” (Lead Discovery Center GmbH, priority 2021, published 2024)
pIC50: −log10 of the molar value.

How the values were obtained:
[1] = tested on: HT-29 cells; assay: CellTiter-Glo luminescent cell viability assay with HT-29 cells (72h incubation); format: cell-based, human; details: Homo sapiens, HT-29, HT29 cells, read-out: CTG HT29
Outline: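 400 cells per well in DMEM/10% FCS were dosed after 24 h and kept 72 h at 37 °C, 5% CO2. ATP-based luminescence (CellTiter-Glo) normalized to DMSO and 10 μM staurosporine controls; IC50 by dose-response fit.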

[2] = tested on: hPMBC; assay: Chymotrypsin-like ProteasomeGlo assay in hPBMC; format: cell-based; details: Homo sapiens; read-out: Pglo hPBMC
Excerpt: Chymotrypsin-like ProteasomeGlo assay in the B-cells isolated from PBMC's following compound addition (IC50). • 1. PBMC's will be isolated from human blood followed by B-cell isolation from the PBMC's using the Miltenyi Isolation Kit. • 2. This experiment will use the Chymotrypsin-like ProteasomeGlo read-out to generate IC50's following compound treatment. • 3. Dilute all compounds 1:100 for the assay. • 4. […] Repeat the DMSO transfer with lane 12. • 5. Lane 12 should not be seeded with any cells. Only medium! • 6. For all steps, make sure the samples and reagents remain cool! • 7. While dealing with the buffy coats, be careful to not let any exposed skin to be in direct contact with the blood.
For the initial steps and to make processing the buffy coats easier, separately process the buffy coats. • a. Cut the tube attached to the buffy coats carefully using a clean, sterile and fresh scalpel. • b. Transfer the blood into 2 individual 50 ml falcons. • c. Add an equal volume of DPBS to the blood in the falcons. • d. Add ˜20 ml of lymphocyte separating medium to two 50 ml falcons. • e. Carefully pour 15-20 ml of the blood+DPBS mix from step c. onto the lymphocyte separating medium from step d. • f. Centrifuge the falcons with the lymphocyte separating medium+blood mix at 800×g for 15 minutes using a swing-out rotor. • g. Following centrifugation, carefully remove the falcons from the centrifuge. • h. The following layers will be observed: • i. Aspirate the plasma layer off carefully without disturbing the different layers. • j. Remove the cell pellet using a pipette into two fresh 50 ml falcons. • k. Fill the falcons with the cells up to 50 ml with DPBS. • l. Centrifuge the falcons at 250×g for 10 minutes using a swing-out rotor (Brake-off). • m. Aspirate the complete DPBS off the cells without disturbing the cell pellet at the bottom of the falcon. • n. Re-suspend the cell pellet in 10 ml of 1×RBC lysis buffer. • o. Incubate the falcons at room temperature in the dark for 10 minutes. • p. After RBC lysis, centrifuge the tubes at 250×g for 10 minutes using a swing-out rotor (brake-off). • (*Note: If the cell pellet is still red or light red, repeat steps n. to p.!) • q. Re-suspend the cell pellet in DPBS up to 50 ml in the falcon. • r. Centrifuge the falcons at 250×g for 10 minutes using a swing-out rotor (Brake-off). • s. Aspirate the DPBS off the cells without disturbing the cell pellet at the bottom of the falcon. • t. Repeat the wash step as described in steps q. to s. 2× times more (total number of washes is 3×). • u. Aspirate the DPBS completely off the cell pellet after the last wash without disturbing the cell pellet. • v. Re-suspend the cell pellet in 20 ml of PBMC cell medium. • w.
• a. Remove the plates with cells from the incubator. • b. Take all the plates including the compound plate, intermediate plate and Staurosporine plate to the ECHO. • c. Click on “Open” in the ECHO software and select the protocol “QLI5_25ul_30 uM-Grenier”. • d. Follow the on-screen prompts and instructions once you click “Start” to insert the compound plate, intermediate plate and destination plates. • e. Change the final number of destination plates on the program. • f. Follow the on-screen prompts and instructions once you click “Start” to load the Staurosporine and destination plates. • g. Once all the compounds, DMSO and Staurosporine have been transferred, place the destination plates in a wet tissue box. • h. Place the destination plates back into the incubator and incubate at 37° C., 5% CO2 for 105 minutes. • i. Re-seal all the compound+Stauro diamond and intermediate plates and store in the dark. Chymotrypsin like ProteasomeGlo Assay • 1. Thaw the components of the ProteasomeGlo assay at room temperature including the ProteasomeGlo Buffer, the lyophilized Luciferin Detection Reagent and the Suc-LLVY-Glo Substrate. • 2. […]

[3] = tested on: A549 (human lung carcinoma cell line); assay: Glo assay of A549 cells (Table 3; ProteasomeGlo plating scheme); format: cell-based; details: Homo sapiens; A549 cells; read-out: PGLo A549
Outline: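 After acoustic compound transfer, plates incubate 105 min (37° C., 5% CO2). Proteasome-Glo reagent containing Suc-LLVY-Glo substrate is added, plates are shaken, then luminescence is measured after 10-15 min to derive IC50 [nM]. Staurosporine and DMSO serve as controls.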

[4] = biological target: T1, β5 subunit of the human constitutive proteasome (CPS) (Homo sapiens, UniProt P28074); assay: β5 inhibition assay, human constitutive proteasome (Suc-LLVY-AMC); format: biochemical; details: IC50 class, Suc-LLVY-AMC substrate
T1 construct: purchased Boston Biochem E-360
Procedure: The enzymatic activity of the β5 subunit of the human constitutive proteasome (CPS) is analyzed. In another assay, which differs from the assay of the human constitutive proteasome only in using the human immunoproteasome (IPS) the enzymatic activity of the β5 subunit of the human immunoproteasome (IPS) is analyzed. […] Inhibition is indicated as IC50 [nM] (“-”=not measured).

[5] = biological target: T2, β5 subunit of the human immunoproteasome (IPS) (Homo sapiens, UniProt P28062); assay: β5 inhibition assay, human immunoproteasome (Suc-LLVY-AMC); format: biochemical; details: IC50 class, Suc-LLVY-AMC substrate
T2 construct: purchased Boston Biochem E-370
Outline: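 Human immunoproteasome (1 nM final) was preincubated 10 min at RT with compound in 100 mM HEPES pH 7.5, 50 mM NaCl, 0.02% SDS, 1 mM DTT. Suc-LLVY-AMC (22.6 μM final) was then added for 4 h at RT in the dark. After stopping with 1 μM bortezomib, AMC fluorescence was read (ex 355/em 460 nm).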

[6] = tested on: B-cells isolated from PBMC's; assay: Chymotrypsin-like ProteasomeGlo assay in B-cells isolated from PBMCs; format: cell-based, human; details: Homo sapiens; B-cells isolated from PBMC's; read-out: Pglo B-Cell
Excerpt: PBMC's will be isolated from human blood followed by B-cell isolation from the PBMC's using the Miltenyi Isolation Kit. • 2. This experiment will use the Chymotrypsin-like ProteasomeGlo read-out to generate IC50's following compound treatment. • 3. Dilute all compounds 1:100 for the assay. • 4. […] Repeat the DMSO transfer with lane 12. • 5. Lane 12 should not be seeded with any cells. Only medium! • 6. For all steps, make sure the samples and reagents remain cool! • 7. While dealing with the buffy coats, be careful to not let any exposed skin to be in direct contact with the blood. […] PBMC isolation followed by B-cell isolation using the Miltenyi Kit • Day 2: B-cell plating, ECHO transfer and ProteasomeGlo assay For the initial steps and to make processing the buffy coats easier, separately process the buffy coats. • a. Cut the tube attached to the buffy coats carefully using a clean, sterile and fresh scalpel. • b. Transfer the blood into 2 individual 50 ml falcons. • c. Add an equal volume of DPBS to the blood in the falcons. • d. Add 20 ml of lymphocyte separating medium to two 50 ml falcons. • e. Carefully pour 15-20 ml of the blood+DPBS mix from step c. onto the lymphocyte separating medium from step d. • f. Centrifuge the falcons with the lymphocyte separating medium+blood mix at 800×g for 15 minutes using a swing-out rotor. • g. Following centrifugation, carefully remove the falcons from the centrifuge. • h. The following layers will be observed: • i. Aspirate the plasma layer off carefully without disturbing the different layers. • j. Remove the cell pellet using a pipette into two fresh 50 ml falcons. • k. Fill the falcons with the cells up to 50 ml with DPBS. • l. Centrifuge the falcons at 250×g for 10 minutes using a swing-out rotor (Brake-off). • m. Aspirate the complete DPBS off the cells without disturbing the cell pellet at the bottom of the falcon. • n. Re-suspend the cell pellet in 10 ml of 1×RBC lysis buffer. • o. Incubate the falcons at room temperature in the dark for 10 minutes. • p. After RBC lysis, centrifuge the tubes at 250×g for 10 minutes using a swing-out rotor (brake-off). • (*Note: If the cell pellet is still red or light red, repeat steps n. to p.!) • q. Re-suspend the cell pellet in DPBS up to 50 ml in the falcon. • r. Centrifuge the falcons at 250×g for 10 minutes using a swing-out rotor (Brake-off). • s. Aspirate the DPBS off the cells without disturbing the cell pellet at the bottom of the falcon. • t. Repeat the wash step as described in steps q. to s. 2× times more (total number of washes is 3×). • u. Aspirate the DPBS completely off the cell pellet after the last wash without disturbing the cell pellet. • v. Re-suspend the cell pellet in 20 ml of PBMC cell medium. • w. […] Re-suspend the pellet in volume of the B-cell isolation buffer calculated as follows: • k. Mix well using a 1 ml pipette and incubate the mix on ice for 20 mins. • l. In the meantime, equilibrate one LS Column as follows: • 1. Insert one LS Column into one slot of the separator as depicted in the pictures above. • 2. Place a 50 ml falcon at the bottom of the LS column to collect the wash flow-through. • 3. Add 3 ml of the B-cell isolation buffer into the column. • 4. Allow the buffer to flow-through making sure that the entire volume passes the column and that the column reservoir is empty before the addition of the cells. • 5. Remove the falcon with the flow-through and discard. • m. Place a fresh 50 ml falcon under the LS Column to collect the untouched B-cells isolated from the PBMCs. • n. Apply the entire volume of the cell+antibody+microbeads mix to the LS Column. • o. Collect the flow-through from each application of the mix into the same 50 ml falcon under the LS Column. • p. Once the complete volume of the cell+antibody+microbead mix has been passed through, proceed to washing of the column. • q. Add 3 ml of the B-cell isolation buffer to the LS Column and allow the buffer to flow-through. […]

Row | SMILES | pIC50 [1] | pIC50 [2] | pIC50 [3] | pIC50 [4] | pIC50 [5] | pIC50 [6]
1 | CC(=O)N[C@H]1CC(=O)N2CCCC(COc3ccc(C)c(c3)CNC(=O)[C@H](CCc3ccccc3)NC1=O)C2 (stereo partly drawn) [Compound 257, N-((8S,11S)-4^4-methyl-7,10,13-trioxo-8-phenethyl-3-oxa-6,9-diaza-1(3,1)-piperidina-4(1,3)-benzenacyclotridecaphane-11-yl)acetamide] | 6.30 to 7.00 | 5.30 to 6.00 | – | – | – | –
2 | CC(=O)N[C@H]1CC(=O)NCCCCOc2ccc(C)c(c2)CNC(=O)[C@H](CCc2ccccc2)NC1=O [Compound 168, N-((10S,13S)-1^4-methyl-8,11,14-trioxo-13-phenethyl-2-oxa-7,12,15-triaza-1(1,3)-benzenacyclohexadecaphane-10-yl)acetamide] | 6.30 to 7.00 | 5.30 to 6.00 | – | < 5.30 | 5.30 to 6.00 | –
3 | CC(=O)N[C@H]1CC(=O)N2CCCC(C2)Oc2ccc(C)c(c2)CNC(=O)[C@H](CCc2ccccc2)NC1=O (stereo partly drawn) [Compound 255, N-((7S,10S)-3^4-methyl-6,9,12-trioxo-7-phenethyl-2-oxa-5,8-diaza-1(3,1)-piperidina-3(1,3)-benzenacyclododecaphane-10-yl)acetamide] | 6.30 to 7.00 | < 5.30 | < 5.30 | – | – | –
4 | Cc1cc(C)c2cc1CNC(=O)[C@H](CCc1ccccc1)NC(=O)CCC(=O)N1CCCC(CCO2)C1 (stereo partly drawn) [Compound 59, (9R)-5^4,5^6-dimethyl-9-phenethyl-4-oxa-7,10-diaza-1(3,1)-piperidina-5(1,3)-benzenacyclotetradecaphane-8,11,14-trione] | 5.30 to 6.00 | – | – | – | – | 6.30 to 7.00

Second part, led by results:

Row | pIC50 [1] | pIC50 [2] | pIC50 [3] | pIC50 [4] | pIC50 [5] | SMILES | pIC50 [6]
5 | 6.30 to 7.00 | < 5.30 | – | – | – | CC(=O)N[C@H]1CC(=O)N2CCC2(C)COc2ccc(C)c(c2)CNC(=O)[C@H](CCc2ccccc2)NC1=O (stereo partly drawn) [Compound 260, N-((8S,11S)-1^2,4^4-dimethyl-7,10,13-trioxo-8-phenethyl-3-oxa-6,9-diaza-1(2,1)-azetidina-4(1,3)-benzenacyclotridecaphane-11-yl)acetamide] | –
6 | 6.30 to 7.00 | < 5.30 | – | – | – | CC(=O)N[C@H]1CC(=O)NCCCOc2ccc(C)c(c2)CNC(=O)[C@H](CCc2ccccc2)NC1=O [Compound 253, N-((9S,12S)-1^4-methyl-7,10,13-trioxo-12-phenethyl-2-oxa-6,11,14-triaza-1(1,3)-benzenacyclopentadecaphane-9-yl)acetamide] | –
7 | 6.30 to 7.00 | > 7.00 | 6.30 to 7.00 | – | – | Cc1ccc2cc1CNC(=O)[C@H](CCc1ccccc1)NC(=O)[C@@H](NC(=O)OCc1ccccc1)CCCC(=O)N1CCC(CO2)C1 (stereo partly drawn) [Compound 351, benzyl ((8S, 11S)-4^4-methyl-7,10,15-trioxo-8-phenethyl-3-oxa-6,9-diaza-1(3,1)-pyrrolidina-4(1,3)-benzenacyclopentadecaphane-11-yl)carbamate] | –
